Results: paper PMC12508057, “Discovery of ETI41 and ETI60: novel selective endosomal Toll-like receptor inhibitors for the treatment of autoimmune diseases” (Experimental & Molecular Medicine, 2025)

Assays:
SLE in MRL/lpr mice = assay: MRL/lpr mouse model of SLE; assay type: in vivo; conditions: 30 mg/kg oral daily for 39 days; for Anti-dsDNA antibodies / Antinuclear antibody (ANA) / IgG in the kidney: compared with HCQ 60 mg/kg; for Alopecia and skin rashes: compared with vehicle and HCQ
Experimental: MRL/MpJ-Fas^lpr/J lupus-prone mice were purchased from Jackson Laboratory to evaluate the effects of ETI41 and ETI60 on the pathophysiology of genetic SLE. This study was approved by the IACUC, Ajou University (approval no. 2019-0046). Fourteen-week-old mice were assigned to the following treatment groups: vehicle (n = 3), ETI60 (n = 3), ETI41 (n = 4) and HCQ (n = 3). These groups were administered daily oral doses of 30 mg/kg ETI41 or ETI60, or 60 mg/kg HCQ for 39 days. All compounds were dissolved in a vehicle comprising ethanol, polyethylene glycol (PEG400) and distilled water at a 1:4:5 ratio. The body weights of the mice were measured every 3 days. Mice were anesthetized in an induction chamber with a gas mixture of 4% isoflurane in 70:30 […] and O2, delivered at a flow rate of 0.8 l/min. Upon completion of the treatment period, paired axillary and popliteal lymph nodes were collected and weighed. Blood samples were taken and maintained in BD Microtainer SST tubes (BD Biosciences), with serum isolated through centrifugation at 3,393g for 30 min at 4 °C. Serum markers, including complement component C3, ANA, anti-dsDNA and total IgG, were evaluated using ELISA kits (MyBioSource). Renal IgG levels were monitored by western blotting using anti-mouse IgG (Thermo Fisher Scientific) and β-actin antibodies (Bethyl Laboratories). Statistical significance among groups was analyzed using IBM SPSS Statistics (v.25.0; IBM Corporation), with statistical significance set at P < 0.05.
Fig. 5 Therapeutic efficacy of ETI41 and ETI60 in SLE mouse model. a Summary of the experimental validation of ETI41 and ETI60 in the MRL/lpr female mouse model of SLE. […] Statistical differences between the induced case and other cases were analyzed and verified using a one-tailed Student’s t-test (*P < 0.05, **P < 0.01, ***P < 0.001).

TLR1/TLR2 = assay: Surface TLR specificity, TNF-α secretion in differentiated THP-1; assay type: cell-based, human; conditions: 2 and 5 μM, differentiated THP-1, FSL-1
Experimental: (§1) RAW 264.7 and differentiated THP-1 cells were seeded into 96-well plates at 2 × 10^4 cells per well, while Daudi cells were seeded at 5 × 10^4 cells per well. After stabilization for 30 min, cells were stimulated with specific TLR agonists for 4 or 24 h. Supernatants were diluted and transferred to precoated ELISA plates to measure TNF-α secretion using kits from Invitrogen. Optical absorbance was measured using a BioTek Synergy HTX multimode microplate reader, and data were interpolated using BioTek Gen5 software.
(§2) The cells were activated with agonistic ligands: […], TLR3 (poly I:C, 2 μg/ml, 24 h), TLR4 (LPS, 10 or 100 ng/ml, 4 h), TLR5 (FLA-ST, 500 ng/ml, 4 h), TLR7 (ORN06/LyoVec, 2 μg/ml, 24 h; and IMQ, 1 μg/ml, 4 h), TLR8 (TL8-506, 2 μg/ml, 24 h) and TLR9 (ODN2395, 1 μM, 4 h) at various concentrations in RAW 264.7 cells, human Daudi cells and THP-1 cells. Data are from at least three independent experiments (n = 3) and statistical differences between the induced case and other cases were analyzed and verified using a one-tailed Student’s t-test (*P < 0.05, **P < 0.01, ***P < 0.001).
(§3) Given the structural similarities among TLR family proteins, achieving high selectivity is challenging. We tested the effects of ETI41 and ETI60 on various surface TLRs to determine their specificity. […] TLRs activate transcription factors, including NF-κB, MAPKs, c-Jun N-terminal kinase (JNK), extracellular signal-regulated kinase (ERK) and IRF7, which regulate cellular functions such as proliferation and apoptosis. Western blot analysis confirmed that ETI41 and ETI60 inhibited IMQ- or ODN2395-induced phosphorylation of MAPKs (p-ERK, p-JNK and p-p38), nuclear translocation of the NF-κB p65 subunit, Iκ-Bα degradation and IRF7 expression in RAW 264.7 cells (Fig. 2a–c and Supplementary Figs. 2 and 3).

TLR2/TLR6 = assay: as above; assay type: cell-based, human; conditions: 2 and 5 μM, differentiated THP-1, Pam3CSK4
Experimental: as §1, §2, §3

COc1ccc2c3c(N)c4c(nc3n(CCCN(C)C)c2c1)CCCC4 [ETI60]
Body weight (SLE in MRL/lpr mice): prevented weight gain or loss | Lymph node weights (SLE in MRL/lpr mice): notably lower | Complement C3 levels (SLE in MRL/lpr mice; serum): increased | Anti-dsDNA antibodies (SLE in MRL/lpr mice): reduced | Antinuclear antibody (ANA) (SLE in MRL/lpr mice): reduced | IgG in the kidney (SLE in MRL/lpr mice): reduced | Alopecia and skin rashes (SLE in MRL/lpr mice): substantially reduced | Inhibition of TLR1/TLR2 (TNF-α secretion) (TLR1/TLR2): neither compound inhibited | Inhibition of TLR2/TLR6 (TNF-α secretion) (TLR2/TLR6): neither compound inhibited

Cc1cc2c(N)c3c(nc2n1CCCN(C)C)CCCCCC3 [ETI41]
Body weight (SLE in MRL/lpr mice): prevented weight gain or loss | Lymph node weights (SLE in MRL/lpr mice): notably lower | Anti-dsDNA antibodies (SLE in MRL/lpr mice): reduced | Antinuclear antibody (ANA) (SLE in MRL/lpr mice): reduced | IgG in the kidney (SLE in MRL/lpr mice): reduced | Alopecia and skin rashes (SLE in MRL/lpr mice): substantially reduced | Inhibition of TLR1/TLR2 (TNF-α secretion) (TLR1/TLR2): neither compound inhibited | Inhibition of TLR2/TLR6 (TNF-α secretion) (TLR2/TLR6): neither compound inhibited
